Assay: Safety and tolerability (TEAEs, PCSAs, laboratory tests) in phase 1 study Parts 1a, 1b, 2
Type: in vivo, healthy adult participants (human)
Procedure: This single ascending dose (SAD) study consisted of three parts: Part 1a, which is a phase 1, randomized, placebo-controlled, double-blind, sequential ascending single dose study; Part 1b, which is phase 1, open-label, sequential single dose study; and Part 2, which is an ascending 14-day repeated oral dose study.
Part 1a evaluated 4 sequential ascending dose levels of Compound 1 under fasted conditions: 10 mg, 20 mg, 30 mg, and 40 mg, each dose per cohort. Participants were fasted overnight for at least 8 hours before the morning dose and 2 hours after dosing.
Part 1b is an open-label study with two single dose levels of Compound 1, previously tested for safety/tolerability in SAD cohorts of Part 1a, were selected (10 mg and 40 mg) and sequentially administered under a fed condition, each dose per cohort. Participants were fasted overnight for at least 8 hours, and then fed with a light breakfast approximately 30 minutes before Compound 1 dosing. In both Part 1a and 1b, all participants received one single dose of treatment.
Part 2 was a randomized, double-blind, placebo-controlled study that evaluated 14-day multiple ascending oral doses of Compound 1 once daily (OD) or twice daily (BID) regimen under fasted conditions: 10 mg QD, 20 mg QD, 15 mg BID, and 20 mg BID. Participants fasted overnight for at least 8 hours before the morning dose and 2 hours after dosing on Day 1 and Day 14. All other morning doses were administered after an overnight fast and approximately 30 minutes before a breakfast snack. Sentinel dosing approach was followed where two of ten participants in each cohort were dosed the first day (n=1, Compound; n=1, placebo) in advance of the full cohort. The remaining 8 participants from each cohort were randomized to receive either Compound or placebo (randomized 7:1) on the following days with at least 48-hour interval from dosing of the sentinel participants, allowing a safety evaluation at the predicted steady state.
Safety and tolerability were assessed by physical examination, neurological examination, monitoring adverse events (AEs) and potentially clinically significant abnormalities (PCSAs) in clinical laboratory tests (hematology, clinical chemistry, and urinalysis), vital signs (body temperature, blood pressure and heart rate), and ECG parameters (heart rate, RR, PR, QRS, QT, QTcF, QTcB intervals) measured in the standard 12-lead ECG or ECGs extracted from 24-hour Holter ECG data.
Safety population included all participants who received at least one dose of study intervention (Compound 1 or placebo). All safety assessments (AEs, laboratory parameters, vital signs) were based on the review of individual values and were summarized using descriptive statistics. Safety analysis was focused on treatment-emergent period, defined as the time from the first investigational medicinal product (IMP) administration up to the end of study visit (included). AEs were coded according to the Medical Dictionary for Regulatory Activities (MedDRA, version 23.1 in Part 1a and Part 1b; version 24 in Part 2). Severity was graded from Grade 1 to 4 according to the Food and Drug Administration (FDA) Guidance for Industry. Number (%) of participants experiencing TEAEs and potentially clinically significant abnormality (PCSAs) in clinical chemistry, vital signs, and ECGs were summarized by dose level group.

Q: For CC(C)(C(=O)N1CCOc2c(C#N)cncc2C1)C(F)F [Compound 1, 4-(3,3-difluoro-2,2-dimethyl-propanoyl)-3,5-dihydro-2H-pyrido[3,4-f] [1,4]oxazepine-9-carbonitrile], which “Any Grade ≥3 TEAE, participants” value (Part 1a single 10 mg fasted) is on record?
A: 0 n

Q: And the “Any TEAE, participants” value (Part 1a single 10 mg fasted)?
A: 2 n

Q: What about the “Any treatment-emergent AESI, participants” value (from here on “Any treatment-emergent AESI”) (Part 1a single 10 mg fasted) of the same molecule?
A: 0 n

Q: What about the “Any treatment-emergent SAE, participants” value (Part 1a single 10 mg fasted) of the same molecule?
A: 0 n

Q: What about the “TEAE Blood creatine phosphokinase increased, participants” value (Part 1a single 10 mg fasted) of the same molecule?
A: 0 n

Q: What about the “TEAE Cardiac disorders, participants” value (Part 1a single 10 mg fasted) of the same molecule?
A: 1 n

Q: And the “TEAE Dermatitis contact, participants” value (Part 1a single 10 mg fasted)?
A: 1 n

Q: And the “TEAE Dizziness, participants” value (Part 1a single 10 mg fasted)?
A: 0 n

Q: And the “TEAE Eye disorders, participants” value (Part 1a single 10 mg fasted)?
A: 0 n

Q: And the “TEAE Fatigue, participants” value (Part 1a single 10 mg fasted)?
A: 0 n

Q: And the “TEAE General disorders and administration site conditions, participants” value (Part 1a single 10 mg fasted)?
A: 0 n

Q: And the “TEAE Headache, participants” value (Part 1a single 10 mg fasted)?
A: 0 n

Q: What about the “TEAE Investigations, participants” value (Part 1a single 10 mg fasted) of the same molecule?
A: 0 n

Q: And the “TEAE Keratitis, participants” value (Part 1a single 10 mg fasted)?
A: 0 n

Q: What about the “TEAE Medical device site dermatitis, participants” value (Part 1a single 10 mg fasted) of the same molecule?
A: 0 n

Q: What about the “TEAE Musculoskeletal and connective tissue disorders, participants” value (Part 1a single 10 mg fasted) of the same molecule?
A: 0 n

Q: And the “TEAE Myalgia, participants” value (Part 1a single 10 mg fasted)?
A: 0 n

Q: What about the “TEAE Nervous system disorders, participants” value (“TEAE Nervous system disorders” for short) (Part 1a single 10 mg fasted) of the same molecule?
A: 0 n

Q: And the “TEAE Presyncope, participants” value (Part 1a single 10 mg fasted)?
A: 0 n

Q: And the “TEAE Skin and subcutaneous tissue disorders, participants” value (Part 1a single 10 mg fasted)?
A: 1 n

Q: And the “TEAE Skin irritation, participants” value (Part 1a single 10 mg fasted)?
A: 0 n

Q: What about the “TEAE Tachycardia, participants” value (Part 1a single 10 mg fasted) of the same molecule?
A: 0 n

Q: And the “TEAE Thrombophlebitis, participants” value (Part 1a single 10 mg fasted)?
A: 0 n

Q: And the “TEAE Vascular disorders, participants” value (Part 1a single 10 mg fasted)?
A: 0 n

Q: And the “TEAE Ventricular extrasystoles, participants” value (from here on “TEAE Ventricular extrasystoles”) (Part 1a single 10 mg fasted)?
A: 1 n

Q: What about the “TEAE Vessel puncture site hypoaesthesia, participants” value (Part 1a single 10 mg fasted) of the same molecule?
A: 0 n

Q: And the “TEAE Vessel puncture site pain, participants” value (shortened to “TEAE Vessel puncture site pain”) (Part 1a single 10 mg fasted)?
A: 0 n

Q: And the “Any Grade ≥3 TEAE, participants” value (Part 1a single 20 mg fasted)?
A: 0 n

Q: What about the “Any TEAE, participants” value (Part 1a single 20 mg fasted) of the same molecule?
A: 1 n

Q: And the “Any treatment-emergent AESI” value (Part 1a single 20 mg fasted)?
A: 0 n

Q: What about the “Any treatment-emergent SAE, participants” value (Part 1a single 20 mg fasted) of the same molecule?
A: 0 n

Q: What about the “TEAE Blood creatine phosphokinase increased, participants” value (Part 1a single 20 mg fasted) of the same molecule?
A: 0 n

Q: And the “TEAE Cardiac disorders, participants” value (Part 1a single 20 mg fasted)?
A: 1 n

Q: What about the “TEAE Dermatitis contact, participants” value (Part 1a single 20 mg fasted) of the same molecule?
A: 0 n

Q: What about the “TEAE Dizziness, participants” value (Part 1a single 20 mg fasted) of the same molecule?
A: 0 n

Q: What about the “TEAE Eye disorders, participants” value (Part 1a single 20 mg fasted) of the same molecule?
A: 0 n

Q: And the “TEAE Fatigue, participants” value (Part 1a single 20 mg fasted)?
A: 0 n

Q: And the “TEAE General disorders and administration site conditions, participants” value (Part 1a single 20 mg fasted)?
A: 0 n

Q: And the “TEAE Headache, participants” value (Part 1a single 20 mg fasted)?
A: 1 n

Q: What about the “TEAE Investigations, participants” value (Part 1a single 20 mg fasted) of the same molecule?
A: 0 n

Q: And the “TEAE Keratitis, participants” value (Part 1a single 20 mg fasted)?
A: 0 n

Q: What about the “TEAE Medical device site dermatitis, participants” value (Part 1a single 20 mg fasted) of the same molecule?
A: 0 n

Q: What about the “TEAE Musculoskeletal and connective tissue disorders, participants” value (Part 1a single 20 mg fasted) of the same molecule?
A: 0 n

Q: What about the “TEAE Myalgia, participants” value (Part 1a single 20 mg fasted) of the same molecule?
A: 0 n

Q: And the “TEAE Nervous system disorders” value (Part 1a single 20 mg fasted)?
A: 1 n

Q: And the “TEAE Presyncope, participants” value (Part 1a single 20 mg fasted)?
A: 0 n

Q: What about the “TEAE Skin and subcutaneous tissue disorders, participants” value (Part 1a single 20 mg fasted) of the same molecule?
A: 0 n

Q: What about the “TEAE Skin irritation, participants” value (Part 1a single 20 mg fasted) of the same molecule?
A: 0 n

Q: What about the “TEAE Tachycardia, participants” value (Part 1a single 20 mg fasted) of the same molecule?
A: 1 n

Q: And the “TEAE Thrombophlebitis, participants” value (Part 1a single 20 mg fasted)?
A: 0 n

Q: What about the “TEAE Vascular disorders, participants” value (Part 1a single 20 mg fasted) of the same molecule?
A: 0 n

Q: And the “TEAE Ventricular extrasystoles” value (Part 1a single 20 mg fasted)?
A: 0 n

Q: What about the “TEAE Vessel puncture site hypoaesthesia, participants” value (Part 1a single 20 mg fasted) of the same molecule?
A: 0 n

Q: And the “TEAE Vessel puncture site pain” value (Part 1a single 20 mg fasted)?
A: 0 n

Q: What about the “Any Grade ≥3 TEAE, participants” value (Part 1a single 30 mg fasted) of the same molecule?
A: 0 n

Q: What about the “Any TEAE, participants” value (Part 1a single 30 mg fasted) of the same molecule?
A: 3 n

Q: And the “Any treatment-emergent AESI” value (Part 1a single 30 mg fasted)?
A: 0 n

Q: What about the “Any treatment-emergent SAE, participants” value (Part 1a single 30 mg fasted) of the same molecule?
A: 0 n

Q: And the “Dizziness, events” value (Part 1a single 30 mg fasted)?
A: 3 events

Q: What about the “TEAE Blood creatine phosphokinase increased, participants” value (Part 1a single 30 mg fasted) of the same molecule?
A: 0 n

Q: What about the “TEAE Cardiac disorders, participants” value (Part 1a single 30 mg fasted) of the same molecule?
A: 0 n

Q: And the “TEAE Dermatitis contact, participants” value (Part 1a single 30 mg fasted)?
A: 1 n

Q: What about the “TEAE Dizziness, participants” value (Part 1a single 30 mg fasted) of the same molecule?
A: 2 n

Q: And the “TEAE Eye disorders, participants” value (Part 1a single 30 mg fasted)?
A: 1 n

Q: And the “TEAE Fatigue, participants” value (Part 1a single 30 mg fasted)?
A: 1 n

Q: And the “TEAE General disorders and administration site conditions, participants” value (Part 1a single 30 mg fasted)?
A: 1 n

Q: And the “TEAE Headache, participants” value (Part 1a single 30 mg fasted)?
A: 0 n

Q: What about the “TEAE Investigations, participants” value (Part 1a single 30 mg fasted) of the same molecule?
A: 0 n

Q: And the “TEAE Keratitis, participants” value (Part 1a single 30 mg fasted)?
A: 1 n

Q: What about the “TEAE Medical device site dermatitis, participants” value (Part 1a single 30 mg fasted) of the same molecule?
A: 0 n

Q: What about the “TEAE Musculoskeletal and connective tissue disorders, participants” value (Part 1a single 30 mg fasted) of the same molecule?
A: 0 n

Q: What about the “TEAE Myalgia, participants” value (Part 1a single 30 mg fasted) of the same molecule?
A: 0 n

Q: What about the “TEAE Nervous system disorders” value (Part 1a single 30 mg fasted) of the same molecule?
A: 2 n

Q: And the “TEAE Presyncope, participants” value (Part 1a single 30 mg fasted)?
A: 0 n

Q: What about the “TEAE Skin and subcutaneous tissue disorders, participants” value (Part 1a single 30 mg fasted) of the same molecule?
A: 1 n

Q: What about the “TEAE Skin irritation, participants” value (Part 1a single 30 mg fasted) of the same molecule?
A: 0 n

Q: And the “TEAE Tachycardia, participants” value (Part 1a single 30 mg fasted)?
A: 0 n

Q: And the “TEAE Thrombophlebitis, participants” value (Part 1a single 30 mg fasted)?
A: 1 n

Q: And the “TEAE Vascular disorders, participants” value (Part 1a single 30 mg fasted)?
A: 1 n

Q: What about the “TEAE Ventricular extrasystoles” value (Part 1a single 30 mg fasted) of the same molecule?
A: 0 n

Q: What about the “TEAE Vessel puncture site hypoaesthesia, participants” value (Part 1a single 30 mg fasted) of the same molecule?
A: 0 n

Q: And the “TEAE Vessel puncture site pain” value (Part 1a single 30 mg fasted)?
A: 0 n

Q: What about the “Any Grade ≥3 TEAE, participants” value (Part 1a single 40 mg fasted) of the same molecule?
A: 0 n

Q: And the “Any TEAE, participants” value (Part 1a single 40 mg fasted)?
A: 3 n

Q: What about the “Any treatment-emergent AESI” value (Part 1a single 40 mg fasted) of the same molecule?
A: 0 n

Q: What about the “Any treatment-emergent SAE, participants” value (Part 1a single 40 mg fasted) of the same molecule?
A: 0 n

Q: What about the “Dizziness, events” value (Part 1a single 40 mg fasted) of the same molecule?
A: 1 event

Q: What about the “TEAE Blood creatine phosphokinase increased, participants” value (Part 1a single 40 mg fasted) of the same molecule?
A: 0 n

Q: What about the “TEAE Cardiac disorders, participants” value (Part 1a single 40 mg fasted) of the same molecule?
A: 1 n

Q: And the “TEAE Dermatitis contact, participants” value (Part 1a single 40 mg fasted)?
A: 1 n

Q: What about the “TEAE Dizziness, participants” value (Part 1a single 40 mg fasted) of the same molecule?
A: 1 n

Reference: patent US20240100065A1, “METHODS FOR TREATING RECEPTOR-INTERACTING PROTEIN KINASE 1-MEDIATED DISEASES” (Genzyme Corporation, priority 2022, published 2024)
